Legend:
[1] = system: bovine parathyroidea cells; experiment: In vitro PTH secretion in bovine parathyroidea cells; format: cell-based; conditions: cells treated with vitamin D analogues for 60 hours at 37° C.
Experimental: The calcemic activities of the compounds of the present invention were determined in rats in vivo, as previously described (Binderup, L., Bramm, E., Biochem. Pharmacol. 37, 889-895 (1988)). The PTH suppressive effect of the compounds of the present invention was tested in vitro on bovine parathyroidea cells: Fresh bovine parathyroid glands were collected from adult cattle within 20 min of slaughter. From minced parathyroid tissue dispersed parathyroid cells were prepared as previously described (E. M. Brown, S. Hurwitz and G. D Aurbach; Preparation of viable isolated bovine parathyroid cells; Endocrinology, 1976, vol 99, no 6, 1582-1588). Then, the cells were treated with vitamin D analogues for 60 hours at 37° C. and the PTH secretion was determined.

rats = experiment: In vivo calcemic activity in rats (Binderup et al.); parameters: species or system rat; conditions: Calcitriol = 100%
secretion of PTH = conditions: patients; 1α(OH)D3 versus 1,25(OH)2 D3 administered; cited from earlier work

Compound | In vivo calcemic activity relative to Calcitriol (1,25(OH)2D3) (rats) | In vitro PTH secretion relative to untreated bovine parathyroidea cells (untreated cells as control = 100%) [1] [%] | suppression of the secretion of PTH, compared with 1,25(OH)2 D3 dosing (secretion of PTH)
1(S),3(R)-Dihydroxy-9,10-seco-26,27-methano-cholesta-5(Z),7(E),10(19),22(E),24-penta-ene [Compound 6] | 1% | 56 | –
C=C1/C(=C\C=C2/CCC[C@]3(C)[C@@H]([C@H](C)CCCC(C)C)CC[C@@H]23)C[C@@H](O)C[C@@H]1O [1α(OH)D3] | – | – | no significant difference
C=C1/C(=C\C=C2/CCC[C@]3(C)[C@@H]([C@H](C)CCCC(C)(C)O)CC[C@@H]23)C[C@@H](O)C[C@@H]1O [Calcitriol, 1,25(OH)2D3, reference compound] | 100% | 60 | –
C=C1C(=CC=C2CCCC3(C)C2CCC3C(C)C=CC=C(C)C)CC(O)CC1O [Compound 1, 1(S),3(R)-Dihydroxy-9,10-secocholesta-5(Z),7(E),10(19),22(E),24-penta-ene] | <10% ^ | 57 | –
C=C1C(=CC=C2CCCC3(C)C2CCC3C(C)C=CC=C(C)C)CC(O)CC1O [Compound 3, 1(S),3(R)-Dihydroxy-9,10-seco-20(S)-cholesta-5(Z),7(E),10(19), 22(E),24-penta-ene] | 1% | 61 | –
C=C1C(=CC=C2CCCC3(C)C2CCC3C(C)C=CC=C(C(F)(F)F)C(F)(F)F)CC(O)CC1O [Compound 25, 1(S),3(R)-Dihydroxy-26,26,26,27,27,27-hexafluoro-9,10-secocholesta-5(Z),7(E),10(19),22(E),24-penta-ene] | 8% | 74 | –

Further lines, with some results ahead:

In vivo calcemic activity relative to Calcitriol (1,25(OH)2D3) (rats) | Compound | In vitro PTH secretion relative to untreated bovine parathyroidea cells (untreated cells as control = 100%) [1] [%] | suppression of the secretion of PTH, compared with 1,25(OH)2 D3 dosing (secretion of PTH)
<0.5% ^ | 1(S),3(R)-Dihydroxy-9,10-seco-26,27-methano-20(S)-cholesta-5(Z),7(E),10(19),22(E),24-penta-ene [Compound 7] | 65 | –
<0.5% ^ | C=C1C(=CC=C2CCCC3(C)C2CCC3C(C)C=CC=C(Br)Br)CC(O)CC1O [Compound 27, 1(S),3(R)-Dihydroxy-20(R)-(4,4-dibromo-1,3-butadien-1-yl)-9,10-seco-pregna-5(Z),7(E),10(19)-triene] | 65 | –
1% | C=C1/C(=C\C=C2/CCC[C@]3(C)[C@@H]([C@H](C)/C=C/C=C(CC)CC)CC[C@@H]23)C[C@@H](O)C[C@@H]1O [Compound 28, 1(S),3(R)-Dihydroxy-26,27-dimethyl-9,10-secocholesta-5(Z),7(E),10(19),22(E),24-penta-ene] | 62 | –

From patent US8455466B2, “Vitamin d analogues, compositions comprising said analogues and their use” (Leo Pharma A/S, priority 2002, dated 2013)
